Source: US9410152B2, “Use of microrna molecules to influence skin pigmentation” (CHANEL PARFUMS BEAUTE, priority 2011, dated 2016)

Columns and labels:
[1] = tested on: protein TYRP1; experiment: Western blot of TYRP1 protein; type: cell-based, human; conditions: MNT-1 cells, 50 nM mimetic, day 12
Method: (§1) 4×10^5 MNT-1 cells were seeded per well in a 6-well plate (#353046, Falcon) on day-1. On day 0, the cells were transfected with 50 nM of mimetic of the miRNAs (hsa-mir-137 # C-300604-07-005, hsa-mir-7 # C-300547-05-0005, hsa-mir-330-5p # C-301082-01-0005, negative control # NC-002000-01-05, Dharmacon), using 5 μL of Lipofectamine 2000 (#1668-019, Invitrogen). On day 1, the medium was changed. On day 3, the cells were trypsinized and seeded at 4×10^5 cells per well. On day 4, the cells were transfected again with 50 nM of mimetic of the miRNAs (see day 0). On day 5, the medium was changed. On day 7, the cells were trypsinized and seeded at 4×10^5 cells per well. On day 8, the cells were transfected with 50 nM of mimetic of the miRNAs (see day 0). On day 9, the medium was changed. On day 10, the cells were trypsinized and divided into two (from one by six wells to two by six wells). On day 12, one six-well plate was used for lysis of the RNA and the other for lysis of the proteins. As positive control of depigmentation, MNT-1 cells were incubated with 3.5 mM of kojic acid (Sigma K3125-5G) for 12 days. The cells were distributed as described and the kojic acid was renewed with the medium every 4 days. The percentage inhibition of the kojic acid is of the order of 10%. […] The concentration of proteins was determined with the BCA Protein Assay (ThermoFisher). […]

[2] = tested on: MLANA; experiment: Western blot of MLANA protein; type: cell-based, human; conditions: MNT-1 cells, 50 nM mimetic, day 12
Method: as §1

[3] = tested on: binding site of miR-330-5p in the 3'UTR of tyrosinase (TYR), WT; experiment: Luciferase reporter assay, wild-type (WT) TYR 3'UTR binding site; type: cell-based; conditions: Lu1205 human melanoma cells, 50 nM mimetic co-transfected, relative to control without insert
Text: (§2) The predicted binding site of miR-330-5p in the 3′UTR (position 68-75 of 3′UTR with total length of 393nt) of TYR (NM 000372) including the adjacent bases was designed using the following primers, and was cloned into the pmirGLO reporter vector (Promega) downstream of the region coding for firefly luciferase and using the Pmel and XbaI sites.
(§3) Ligation of the primers LL2086 (sense) and LL2087 (antisense) represents the wild-type (WT) TYR 3′UTR sequence, whereas ligation of the primers LL2088 (sense) and LL2089 (antisense) represents the mutated form of the binding site of the miR-330-Site 5p in the 3′UTR TYR region (MUT). All the constructs were confirmed by sequencing. On D0, 200,000 Lu1205 cells were seeded in 12-well plates. On D1, the Lu1205 cells were transfected with either 30 ng of pmirGLO empty vector (without insert), or 30 ng of WT construct, or 30 ng of MUT construct. At the same time, the cells were co-transfected with 50 nM of mimetic of miR-330-5p (Dharmacon) using Lipofectamine 2000 (Invitrogen). Forty-eight hours after transfection, the cells were collected and analyzed both with firefly luciferase and with Renilla luciferase (included in the pmirGLO vector) using the luciferase double assay (Promega) and a luminometer (Microlumatplus LB96V, Berthold Technologies). […] The relative luciferase activity was calculated, establishing the condition of non-insertion as 1.

[4] = tested on: mutated form of the binding site of miR-330-5p in the 3'UTR TYR region (MUT); experiment: Luciferase reporter assay, mutated (MUT) TYR 3'UTR binding site; type: cell-based; conditions: Lu1205 human melanoma cells, 50 nM mimetic co-transfected, relative to control without insert
Text: as §2, §3

Substance | level of protein TYRP1 (Western blot) [1] | level of protein MLANA (Western blot) [2] | luciferase activity, WT construct [3] | luciferase activity, MUT construct [4]
hsa-miR-137: mimetic of miRNA hsa-mir-137 (Dharmacon C-300604-07-005); mature sequence SEQ ID NO: 3 (UUAUUGCUUAAGAAUACGCGUAG; commercial mimic, chemistry not given here; listed as Homo sapiens) | reduces the level of protein TYRP1 slightly | eliminates | – | –
hsa-miR-330-5p: mimetic of miRNA hsa-mir-330-5p (Dharmacon C-301082-01-0005); mature sequence 5'-UCUCUGGGCCUGUGUCUUAGGC-3' (SEQ ID NO: 1) (UCUCUGGGCCUGUGUCUUAGGC; mimic duplex, passenger strand not given here; listed as Homo sapiens) | – | – | considerably reduced | restoration of luciferase activity
